From patent US20110319416A1, “Subunit Selective NMDA Receptor Antagonists For The Treatment Of Neurological Conditions” (EMORY UNIVERSITY, priority 2009, published 2011)
Marks after values point to notes of the source that are not given here.

Key:
[1] = molecular target: T1, NR2A (Homo sapiens, UniProt Q05586+Q12879); conditions: cited from earlier work
[2] = molecular target: T2, NR2B (Homo sapiens, UniProt Q05586+Q13224); conditions: Kb determined by Schild analysis; read-out: 2B (μM) Kb; cited from earlier work
T2 sequence (Q13224 27-1484, other chains not shown): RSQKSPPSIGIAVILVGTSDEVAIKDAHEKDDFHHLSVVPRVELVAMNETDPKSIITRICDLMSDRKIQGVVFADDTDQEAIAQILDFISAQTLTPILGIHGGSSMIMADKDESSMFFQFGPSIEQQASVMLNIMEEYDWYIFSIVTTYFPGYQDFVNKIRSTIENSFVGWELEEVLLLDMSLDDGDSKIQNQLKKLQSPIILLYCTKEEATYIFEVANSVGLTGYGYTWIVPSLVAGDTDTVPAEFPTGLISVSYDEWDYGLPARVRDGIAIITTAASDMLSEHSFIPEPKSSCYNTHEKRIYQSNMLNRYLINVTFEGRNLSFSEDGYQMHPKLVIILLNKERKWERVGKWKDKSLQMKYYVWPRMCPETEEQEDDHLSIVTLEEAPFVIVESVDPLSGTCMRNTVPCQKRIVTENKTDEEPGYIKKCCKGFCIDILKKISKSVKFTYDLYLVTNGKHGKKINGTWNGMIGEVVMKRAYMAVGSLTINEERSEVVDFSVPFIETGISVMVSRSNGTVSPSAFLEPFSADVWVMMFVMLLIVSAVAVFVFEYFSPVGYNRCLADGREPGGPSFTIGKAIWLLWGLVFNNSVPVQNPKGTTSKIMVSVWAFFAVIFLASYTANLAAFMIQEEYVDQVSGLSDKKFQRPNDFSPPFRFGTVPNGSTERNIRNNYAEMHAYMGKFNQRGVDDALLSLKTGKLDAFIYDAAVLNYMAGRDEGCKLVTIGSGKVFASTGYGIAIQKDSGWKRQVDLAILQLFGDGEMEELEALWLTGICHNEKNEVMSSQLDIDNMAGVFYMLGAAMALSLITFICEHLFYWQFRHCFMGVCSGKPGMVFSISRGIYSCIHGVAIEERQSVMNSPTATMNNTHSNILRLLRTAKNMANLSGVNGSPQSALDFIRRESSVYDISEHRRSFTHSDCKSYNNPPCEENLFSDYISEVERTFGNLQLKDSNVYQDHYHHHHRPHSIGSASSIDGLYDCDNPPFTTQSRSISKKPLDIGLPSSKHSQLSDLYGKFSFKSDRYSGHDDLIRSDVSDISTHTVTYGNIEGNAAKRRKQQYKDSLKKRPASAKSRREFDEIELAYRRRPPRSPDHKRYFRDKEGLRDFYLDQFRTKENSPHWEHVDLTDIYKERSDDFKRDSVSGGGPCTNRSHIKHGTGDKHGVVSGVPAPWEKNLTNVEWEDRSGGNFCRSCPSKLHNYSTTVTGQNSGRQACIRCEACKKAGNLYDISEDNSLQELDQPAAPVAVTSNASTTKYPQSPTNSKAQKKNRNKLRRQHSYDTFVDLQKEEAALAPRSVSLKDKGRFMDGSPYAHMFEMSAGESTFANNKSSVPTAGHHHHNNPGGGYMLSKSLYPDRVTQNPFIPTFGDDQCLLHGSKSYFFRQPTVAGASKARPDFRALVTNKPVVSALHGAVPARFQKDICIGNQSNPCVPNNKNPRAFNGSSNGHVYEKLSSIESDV

[3] = molecular target: T2, NR2B
[4] = molecular target: T2, NR2B; conditions: Ki estimated from equilibrium binding displacement IC50 at a single concentration; low affinity site; read-out: 2B (μM) Ki*; cited from earlier work
[5] = molecular target: T2, NR2B; assay: Literature equilibrium binding displacement, NR2B (Table 1)
[6] = molecular target: NR2C (Homo sapiens, UniProt Q05586+Q14957); conditions: Ki estimated from equilibrium binding displacement IC50 at a single concentration; low affinity site; read-out: 2C (μM) Ki*; cited from earlier work
[7] = molecular target: T1, NR2A; conditions: Ki estimated from equilibrium binding displacement IC50 at a single concentration; low affinity site; read-out: 2A (μM) Ki*; cited from earlier work
[8] = molecular target: T3, NR2D (Homo sapiens, UniProt O15399+Q05586); assay: Literature equilibrium binding displacement, NR2D (Table 1)
T3 sequence (O15399 28-1336, other chains not shown): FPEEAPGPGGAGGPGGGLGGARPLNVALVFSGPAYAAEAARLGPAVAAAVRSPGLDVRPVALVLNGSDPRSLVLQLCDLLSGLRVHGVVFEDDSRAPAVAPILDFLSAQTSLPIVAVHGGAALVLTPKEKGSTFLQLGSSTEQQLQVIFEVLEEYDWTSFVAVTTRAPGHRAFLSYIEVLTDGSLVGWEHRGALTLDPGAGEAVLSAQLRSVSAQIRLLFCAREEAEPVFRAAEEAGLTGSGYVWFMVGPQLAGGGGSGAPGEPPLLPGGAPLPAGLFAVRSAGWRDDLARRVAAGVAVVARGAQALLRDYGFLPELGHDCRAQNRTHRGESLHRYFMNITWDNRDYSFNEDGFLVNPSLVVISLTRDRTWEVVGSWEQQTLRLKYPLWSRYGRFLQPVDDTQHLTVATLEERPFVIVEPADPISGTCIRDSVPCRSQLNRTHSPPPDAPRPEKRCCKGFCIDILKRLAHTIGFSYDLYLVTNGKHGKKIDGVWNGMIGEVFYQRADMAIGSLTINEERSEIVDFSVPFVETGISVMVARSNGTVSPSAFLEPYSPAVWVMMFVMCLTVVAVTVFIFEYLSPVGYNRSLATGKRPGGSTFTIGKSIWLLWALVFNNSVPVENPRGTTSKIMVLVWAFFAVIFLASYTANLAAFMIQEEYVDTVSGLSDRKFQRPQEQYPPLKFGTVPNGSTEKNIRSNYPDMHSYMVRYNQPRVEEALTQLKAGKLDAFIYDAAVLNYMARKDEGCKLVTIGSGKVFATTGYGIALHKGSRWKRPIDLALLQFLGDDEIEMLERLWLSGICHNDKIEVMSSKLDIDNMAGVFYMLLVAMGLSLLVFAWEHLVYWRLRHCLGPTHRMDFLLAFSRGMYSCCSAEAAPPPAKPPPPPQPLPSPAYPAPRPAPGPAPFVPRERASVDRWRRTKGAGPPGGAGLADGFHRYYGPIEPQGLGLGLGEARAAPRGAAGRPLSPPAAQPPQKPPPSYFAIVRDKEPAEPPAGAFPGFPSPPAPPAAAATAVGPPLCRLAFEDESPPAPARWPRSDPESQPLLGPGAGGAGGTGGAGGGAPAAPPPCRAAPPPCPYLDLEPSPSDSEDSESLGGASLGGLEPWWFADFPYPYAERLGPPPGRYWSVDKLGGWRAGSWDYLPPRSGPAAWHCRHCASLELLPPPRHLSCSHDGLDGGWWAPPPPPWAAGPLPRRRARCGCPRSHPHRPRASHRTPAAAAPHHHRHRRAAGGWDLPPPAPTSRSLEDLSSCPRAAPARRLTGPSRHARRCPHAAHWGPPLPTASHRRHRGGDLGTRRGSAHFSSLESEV

[9] = molecular target: T3, NR2D; conditions: Ki estimated from equilibrium binding displacement IC50 at a single concentration; low affinity site; read-out: 2D (μM) Ki*; cited from earlier work

T1 sequence (Q12879 23-1464, other chains not shown): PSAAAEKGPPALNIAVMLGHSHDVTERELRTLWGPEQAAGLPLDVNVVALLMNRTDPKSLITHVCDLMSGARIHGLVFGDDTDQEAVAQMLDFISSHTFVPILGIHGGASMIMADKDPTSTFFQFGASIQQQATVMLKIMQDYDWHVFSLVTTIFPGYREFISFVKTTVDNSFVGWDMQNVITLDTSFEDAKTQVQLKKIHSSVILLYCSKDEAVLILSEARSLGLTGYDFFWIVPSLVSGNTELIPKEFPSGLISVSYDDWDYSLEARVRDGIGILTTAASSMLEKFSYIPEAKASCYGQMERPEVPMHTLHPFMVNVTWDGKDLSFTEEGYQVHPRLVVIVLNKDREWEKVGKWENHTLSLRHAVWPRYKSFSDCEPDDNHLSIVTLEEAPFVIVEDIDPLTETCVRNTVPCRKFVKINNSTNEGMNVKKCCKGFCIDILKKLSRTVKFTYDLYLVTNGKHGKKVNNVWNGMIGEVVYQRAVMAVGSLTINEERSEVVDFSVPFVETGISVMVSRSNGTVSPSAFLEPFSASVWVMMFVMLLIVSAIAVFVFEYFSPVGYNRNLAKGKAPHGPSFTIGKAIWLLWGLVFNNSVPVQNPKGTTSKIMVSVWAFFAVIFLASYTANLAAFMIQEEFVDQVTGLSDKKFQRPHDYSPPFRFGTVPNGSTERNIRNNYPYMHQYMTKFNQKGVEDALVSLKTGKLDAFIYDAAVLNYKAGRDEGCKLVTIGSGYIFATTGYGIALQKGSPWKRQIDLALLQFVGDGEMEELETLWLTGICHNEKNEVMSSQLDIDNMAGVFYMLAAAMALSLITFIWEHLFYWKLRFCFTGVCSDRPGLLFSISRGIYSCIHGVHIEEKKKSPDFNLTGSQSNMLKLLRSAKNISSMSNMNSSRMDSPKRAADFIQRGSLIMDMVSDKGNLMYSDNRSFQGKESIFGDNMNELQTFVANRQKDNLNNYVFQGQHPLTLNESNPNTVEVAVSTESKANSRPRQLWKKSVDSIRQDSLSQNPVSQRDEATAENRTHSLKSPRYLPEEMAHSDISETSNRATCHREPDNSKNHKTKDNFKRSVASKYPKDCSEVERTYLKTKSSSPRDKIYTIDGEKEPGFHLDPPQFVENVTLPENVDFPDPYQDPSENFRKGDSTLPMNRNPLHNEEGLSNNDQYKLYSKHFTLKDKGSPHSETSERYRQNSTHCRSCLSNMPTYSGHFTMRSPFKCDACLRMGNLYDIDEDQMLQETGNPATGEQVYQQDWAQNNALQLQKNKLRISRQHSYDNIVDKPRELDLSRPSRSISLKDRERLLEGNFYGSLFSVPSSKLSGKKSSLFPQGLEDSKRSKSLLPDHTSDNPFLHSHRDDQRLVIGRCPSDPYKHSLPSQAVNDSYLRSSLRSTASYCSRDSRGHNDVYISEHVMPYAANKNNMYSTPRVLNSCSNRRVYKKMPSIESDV

C[C@H](N[C@@H](c1cccc2[nH]c(=O)c(=O)[nH]c12)P(=O)(O)O)c1ccc(Br)cc1 [NVP-AAM07]
Kb ([1]; Kb determined by Schild analysis, read-out: 2A (μM) Kb): 15.2 µM
selectivity for NR2A over NR2B ([1]; Schild analysis (Kb)): 5 fold
Kb [2]: 78 µM
2A/2B (ratio of Kb) [3]: 0.2

O=C(/C=C/c1c(C(=O)[O-])[nH]c2cc(Cl)cc(Cl)c12)Nc1ccccc1.[Na+] [GV150, 526A]
potency estimated from few doses [4]: 0.08 µM
2A/2B (ratio of Ki*) [5]: 1.0*
potency estimated from few doses [6]: 0.11 µM
potency estimated from few doses [7]: 0.08 µM
2A/2D (ratio of Ki*) [8]: 1.6*
potency estimated from few doses [9]: 0.05 µM
